Patent US12692233B2, “Anthelmintic compounds comprising a pyridine structure” (Intervet Inc., priority 2020, dated 2026)
pEC50: −log10 of the molar value.

How the values were obtained:
Haemonchus contortus = assay: In vitro assay Haemonchus contortus, motility of exsheathed L3 larvae; type: cell-based; settings: 168 h, 7 days incubation, motility reduced by 50% with respect to positive control ivermectin, read-out: ED50 against Haemonchus contortus
Description: Solutions of compounds with declining concentrations in DMSO were prepared, diluted with nutrient medium and distributed to 96 well microtiterplates. […]3 larvae of Haemonchus contortus were incubated for 20 min at 37° C. in a water bath, separated by centrifugation and added to the wells with 300 Larvae/well. After incubation for 7 days motility was assessed by automated microscopy. Ivermectin was used as positive control, DMSO as negative control and ED50 values were calculated which represent the concentration for an individual compound that reduces motility by 50% with respect to the […].

[1] = biological target: T1, human Maxi K channel (BK channel) (Homo sapiens, UniProt Q12791); assay: Agonistic activity at the human Maxi K channel (BK channel), FLIPR membrane potential in CHO K1 cells; type: cell-based; settings: CHO K1 cells stably transfected with KCNMA1 and beta1 (KCNMB1) subunits, membrane potential dye
T1 construct: expressed in transfected cells; host or cells: CHO K1
T1 sequence (Q12791 1-1178 isoform Q12791-5): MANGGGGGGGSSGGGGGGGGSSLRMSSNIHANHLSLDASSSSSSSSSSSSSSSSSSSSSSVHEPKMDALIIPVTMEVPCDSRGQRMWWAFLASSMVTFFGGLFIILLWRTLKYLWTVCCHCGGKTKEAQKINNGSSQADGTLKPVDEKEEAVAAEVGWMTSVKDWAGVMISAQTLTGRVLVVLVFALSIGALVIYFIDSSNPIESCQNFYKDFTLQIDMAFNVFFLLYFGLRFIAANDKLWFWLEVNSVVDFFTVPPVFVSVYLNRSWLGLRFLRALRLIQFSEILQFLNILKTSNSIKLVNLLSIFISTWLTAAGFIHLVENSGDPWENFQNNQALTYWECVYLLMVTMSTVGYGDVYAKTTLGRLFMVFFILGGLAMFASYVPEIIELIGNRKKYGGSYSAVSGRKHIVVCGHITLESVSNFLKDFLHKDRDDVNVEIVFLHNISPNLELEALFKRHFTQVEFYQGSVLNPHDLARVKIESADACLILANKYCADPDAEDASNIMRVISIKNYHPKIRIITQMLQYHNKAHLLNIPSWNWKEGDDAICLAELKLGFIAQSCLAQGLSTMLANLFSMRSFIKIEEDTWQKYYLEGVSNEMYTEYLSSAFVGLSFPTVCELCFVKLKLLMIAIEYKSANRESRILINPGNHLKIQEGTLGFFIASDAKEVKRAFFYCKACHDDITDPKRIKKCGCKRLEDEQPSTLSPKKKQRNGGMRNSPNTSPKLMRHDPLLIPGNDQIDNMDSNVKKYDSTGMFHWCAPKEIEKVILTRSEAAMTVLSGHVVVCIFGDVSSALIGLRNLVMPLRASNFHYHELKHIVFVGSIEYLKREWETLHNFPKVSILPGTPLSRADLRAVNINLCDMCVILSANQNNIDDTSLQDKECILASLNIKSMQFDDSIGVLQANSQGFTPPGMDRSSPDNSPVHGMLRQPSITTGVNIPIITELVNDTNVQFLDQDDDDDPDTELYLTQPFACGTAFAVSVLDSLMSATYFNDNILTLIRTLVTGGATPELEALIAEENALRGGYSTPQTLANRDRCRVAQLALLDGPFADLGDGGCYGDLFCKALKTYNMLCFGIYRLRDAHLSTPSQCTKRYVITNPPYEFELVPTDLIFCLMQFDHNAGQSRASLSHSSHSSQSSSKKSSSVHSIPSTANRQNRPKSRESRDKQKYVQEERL
T1 sequence (Q16558 whole entry partner): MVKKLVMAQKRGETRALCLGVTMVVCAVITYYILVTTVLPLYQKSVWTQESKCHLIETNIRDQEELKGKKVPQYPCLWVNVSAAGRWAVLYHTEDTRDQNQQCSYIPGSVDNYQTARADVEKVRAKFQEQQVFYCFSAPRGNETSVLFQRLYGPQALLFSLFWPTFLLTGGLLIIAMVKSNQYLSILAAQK
Text: A CHO K1 cell line was stably transfected with the KCNMA1 (KCa1.1, U11058) and beta1 (KCNMB1) subunits of the human Maxi K channel (Ponte et al, Molecular Pharmacology 2012, 81(4), 567-577).
The complete measurement takes 150 s.

Oesophagostumum dentatum [2] = assay: In vitro assay Oesophagostumum dentatum larval stage 3; type: cell-based; settings: larval stage 3, 20 larvae per well, microscopic examination; read-out: MEC (minimum effective concentration) against Oesophagostumum dentatum L3
Text: (§1) […] galli (intestinal roundworm of chicken), larval stage 3 (“L3”); and Oesophagostumum dentatum (nodular worm of swine), larval stages 3 and 4 (respectively “L3” and “L4”) where suspended in a nutrient medium and distributed to 96 well plates with 20 larvae per well. The wells were spiked DMSO solutions of the compounds with declining concentration.

Dirofilaria immitis = assay: In vitro assay Dirofilaria immitis L1 (microfilaria), motility; type: cell-based; settings: 72 h, 3 days incubation, reduction in motility vs DMSO
Description: (§2) Approximately 500 D. immitis microfilaria were added to a microtiter plate containing a nutrient medium and the test compound in DMSO at varying concentrations. After incubation for 3 days, activity was evaluated as reduction in motility as compared to DMSO as negative control. Compounds were tested in duplicates. Based on the concentration response curves EC50 values were calculated.

Acanthocheilonema viteae = assay: In vitro assay Acanthocheilonema viteae L1 (microfilaria), motility; type: cell-based; settings: 72 h, 3 days incubation, reduction in motility vs DMSO
Description: as §2, with “A. viteae” for “D. immitis”

Oesophagostumum dentatum [3] = assay: In vitro assay Oesophagostumum dentatum larval stage 4; type: cell-based; settings: larval stage 4, 20 larvae per well, microscopic examination; read-out: MEC (minimum effective concentration) against Oesophagostumum dentatum L4
Text: as §1

C. elegans Slo-1a = C. elegans Slo-1a (Caenorhabditis elegans, UniProt Q95V25); assay: Agonistic activity at C. elegans Slo-1a, FLIPR membrane potential in CHO K1 cells; settings: EC50 agonistic activity at C. elegans Slo-1a, CHO K1 cells stably transfected with slo-1a, membrane potential dye
Sequence of C. elegans Slo-1a (Q95V25 whole entry): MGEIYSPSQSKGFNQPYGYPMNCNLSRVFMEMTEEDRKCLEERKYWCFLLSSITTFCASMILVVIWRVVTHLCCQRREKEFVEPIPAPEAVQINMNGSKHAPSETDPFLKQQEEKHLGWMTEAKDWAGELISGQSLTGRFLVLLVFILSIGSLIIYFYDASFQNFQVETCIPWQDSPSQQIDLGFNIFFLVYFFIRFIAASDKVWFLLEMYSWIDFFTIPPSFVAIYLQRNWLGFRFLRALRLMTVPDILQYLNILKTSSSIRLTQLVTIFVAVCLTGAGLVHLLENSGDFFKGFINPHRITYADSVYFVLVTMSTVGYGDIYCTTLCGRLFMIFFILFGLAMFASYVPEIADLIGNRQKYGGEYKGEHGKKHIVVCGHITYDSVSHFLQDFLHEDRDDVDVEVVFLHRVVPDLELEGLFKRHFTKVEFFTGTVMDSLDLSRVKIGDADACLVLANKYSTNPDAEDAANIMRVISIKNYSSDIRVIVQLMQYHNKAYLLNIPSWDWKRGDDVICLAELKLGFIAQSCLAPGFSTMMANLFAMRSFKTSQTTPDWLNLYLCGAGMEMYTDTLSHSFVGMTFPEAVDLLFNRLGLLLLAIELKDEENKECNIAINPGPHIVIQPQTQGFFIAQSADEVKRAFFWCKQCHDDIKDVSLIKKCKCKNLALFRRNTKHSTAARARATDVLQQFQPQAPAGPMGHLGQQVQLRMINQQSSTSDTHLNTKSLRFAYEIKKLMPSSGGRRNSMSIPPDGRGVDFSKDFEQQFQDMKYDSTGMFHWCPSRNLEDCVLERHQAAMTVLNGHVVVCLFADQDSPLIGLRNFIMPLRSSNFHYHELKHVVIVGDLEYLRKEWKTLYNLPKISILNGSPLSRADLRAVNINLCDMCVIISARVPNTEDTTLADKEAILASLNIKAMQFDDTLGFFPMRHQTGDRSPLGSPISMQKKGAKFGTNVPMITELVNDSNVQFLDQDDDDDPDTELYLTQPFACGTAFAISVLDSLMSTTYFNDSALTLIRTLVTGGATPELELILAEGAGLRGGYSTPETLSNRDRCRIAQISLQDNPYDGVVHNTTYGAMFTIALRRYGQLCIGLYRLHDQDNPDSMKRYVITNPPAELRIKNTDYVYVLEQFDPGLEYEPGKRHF

Ascaridia galli = assay: In vitro assay Ascaridia galli larval stage 3; type: cell-based; settings: larval stage 3, 20 larvae per well, microscopic examination, read-out: MEC (minimum effective concentration) against Ascaridia galli L3
Text: as §1

| SMILES | pEC50 [1] | pEC50 (C. elegans Slo-1a) | pEC50 (Haemonchus contortus) | minimal effective concentration (Oesophagostumum dentatum [2]) | pEC50 (Dirofilaria immitis) | pEC50 (Acanthocheilonema viteae) | minimal effective concentration (Oesophagostumum dentatum [3]) | minimal effective concentration (Ascaridia galli) |
| --- | --- | --- | --- | --- | --- | --- | --- | --- |
| CN(C)c1cc(Oc2cccc(Cl)c2Cl)ncc1C(=O)Nc1cccc2ccccc12 [Compound 36] | < 4.52 |  |  | ≤ 50 µM | > 5.00 | > 5.00 | ≤ 50 µM |  |
| CN(C)c1cc(Sc2cc(Cl)cc(Cl)c2)ncc1C(=O)N[C@@H]1CCOc2ccccc21 [Compound 18] | < 4.52 |  | > 4.30 |  | > 5.00 |  |  | ≤ 50 µM |
| COc1cc(Sc2cc(Cl)cc(Cl)c2)ncc1C(=O)N[C@H]1CCCc2ccccc21 [Compound 82] | < 4.52 | > 5.00 | > 4.30 |  | > 5.00 | > 5.00 | ≤ 50 µM |  |
| CCOc1cc(Sc2cccc(Cl)c2Cl)ncc1C(=O)N[C@H]1CCc2ccccc21 [Compound 72] | < 4.52 | > 5.00 | > 4.30 |  | > 5.00 | > 5.00 |  | ≤ 50 µM |
| CN(C)c1cc(Sc2cccc(Cl)c2Cl)ncc1C(=O)N[C@@H]1CCOc2ccccc21 [Compound 39] | < 4.52 |  |  | ≤ 50 µM | > 5.00 | > 5.00 |  |  |

More lines, main results first:

| pEC50 [1] | pEC50 (C. elegans Slo-1a) | SMILES | pEC50 (Haemonchus contortus) | minimal effective concentration (Oesophagostumum dentatum [2]) | pEC50 (Dirofilaria immitis) | pEC50 (Acanthocheilonema viteae) | minimal effective concentration (Oesophagostumum dentatum [3]) | minimal effective concentration (Ascaridia galli) |
| --- | --- | --- | --- | --- | --- | --- | --- | --- |
| < 4.52 |  | CSc1cc(Sc2cc(Cl)cc(Cl)c2)ncc1C(=O)N[C@@H]1CCOc2ccccc21 [Compound 55] | > 4.30 |  |  |  |  |  |
| < 4.52 | > 6.00 | O=C(N[C@H]1CCCc2ccccc21)c1cnc(Sc2cccc(Cl)c2Cl)cc1N1CCOCC1 [Compound 21] | > 4.30 |  |  |  |  |  |
| < 4.52 | > 6.00 | CN(C)c1cc(Oc2cccc(Cl)c2Cl)ncc1C(=O)N[C@H]1CCc2ccccc21 [Compound 35] | > 4.30 |  |  |  |  |  |
| < 4.52 |  | CCSc1cc(Sc2cc(Cl)cc(Cl)c2)ncc1C(=O)N[C@H]1CCc2ccccc21 [Compound 73] | > 4.30 | ≤ 50 µM |  |  |  |  |
| < 4.52 | > 5.00 | CSc1cc(Sc2cccc(Cl)c2Cl)ncc1C(=O)N[C@H]1CCOc2ccccc21 [Compound 52] | > 4.30 | ≤ 50 µM |  |  |  | ≤ 50 µM |
| < 4.52 | > 6.00 | CN(C)c1cc(Oc2cccc(Cl)c2Cl)ncc1C(=O)N[C@H]1CCCc2ccccc21 [Compound 34] | > 4.30 |  |  |  |  |  |
